Experimental data: patent US7638526B2, “Azetidine derivatives useful in treating pain, diabetes and disorders of lipid metabolism” (Schering Corporation, priority 2006, dated 2009)

target: T1, human GPR119 (Homo sapiens, UniProt Q8TDV5); assay: GPR119 screening assay (LANCE cAMP, HEK 293 cells stably transfected with human GPR119); type: cell-based; details: HEK 293 cells stably transfected with human GPR119, LANCE cAMP; read-out: GPR 119 cAMP EC50
T1 construct: expressed in transfected cells
T1 sequence (Q8TDV5 1-335): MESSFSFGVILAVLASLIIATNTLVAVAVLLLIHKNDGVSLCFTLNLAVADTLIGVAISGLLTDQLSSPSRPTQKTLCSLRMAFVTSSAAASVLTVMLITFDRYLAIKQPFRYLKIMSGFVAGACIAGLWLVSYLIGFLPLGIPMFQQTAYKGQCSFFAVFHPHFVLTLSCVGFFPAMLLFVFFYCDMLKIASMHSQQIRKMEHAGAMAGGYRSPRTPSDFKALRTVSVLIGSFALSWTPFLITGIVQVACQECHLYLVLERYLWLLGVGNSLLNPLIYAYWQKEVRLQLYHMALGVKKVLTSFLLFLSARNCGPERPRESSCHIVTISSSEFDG

| Structure (SMILES) | EC50 |
| --- | --- |
| COc1cc(C(=O)N2CCC3(CC2)CN(c2ccccc2F)C3c2ccc(Cl)cc2)cc(OC)c1OC (centres unmarked) | 516 nM |
| COc1cc(C(=O)N2CCC3(CC2)CN(CC(C)C)C3c2ccccc2)cc(OC)c1OC (centres unmarked) | 882 nM |
| COc1cc(C(=O)N2CCC3(CC2)CN(Cc2ccc(F)cc2F)C3c2ccc(F)cc2)cc(OC)c1OC (centres unmarked) | 1200 nM |
| COc1cc(C(=O)N2CCC3(CC2)CN(Cc2ccccc2Cl)C3c2ccccc2)cc(OC)c1OC (centres unmarked) | 1260 nM |
| O=C(c1ccc2c(c1)OCCCO2)N1CCC2(CC1)CN(Cc1ccc(F)cc1F)C2c1ccc(F)cc1 (centres unmarked) | 1300 nM |
| COc1cc(C(=O)N2CCC3(CC2)CN(c2ccc(C)cc2)C3c2ccc(Cl)cc2)cc(OC)c1OC (centres unmarked) | 1340 nM |

target: T2, human Cav3.2 (Homo sapiens, UniProt O95180); assay: Ionworks screen for hCaV3.2 (IonWorks HT voltage clamp, T-type calcium current); type: cell-based; details: IonWorks (IW) screen
T2 construct: expressed in transfected cells
From the text: (§1) Functional evaluation of voltage-gated ion channels was used to determine potency and/or single concentration efficacy of proprietary compounds. Two different methodologies were used to measure ion currents: the IonWorks HT (Molecular Devices, Sunnyvale, Calif.) a moderate throughput voltage clamp screening platform that utilizes 96-well compound plates and conventional whole cell patch clamp for lower throughput, higher fidelity determinations.
HEK cells were transiently transfected and then selected for stable heterologous expression of different channel proteins of interest. Calcium channel cell lines expressed a resting potassium current, human Kir2.1, and the pore forming α-subunit of voltage-gated calcium channels. In the case of Cav2.1 cells the auxiliary subunit, β2a, was also expressed. Calcium channel lines that were used to generate the data in this document expressed either human Cav3.2, rat Cav3.2 or human Cav2.1. The human heart sodium channel, hNav1.5, was stably expressed in CHO cells. These cells were licensed from the University of Pennsylvania.
Cell lines were grown at 37° C. in humidified incubators, equilibrated with 95% air/5% CO2. CHO cells were grown in Ham's F-12 medium. HEK cells were grown in DMEM. All media were supplemented with 10% heat-inactivated fetal bovine serum, penicillin, streptomycin and appropriate selection antibiotics (zeocin, geneticin and/or hygromycin). Cells were passaged when 80% confluent or less.
Ionworks Screen for hCaV3.2
The extracellular buffer for experiments using this instrument contained the following (mM) (NaCl 125, HEPES 10, KCl 5.4, CaCl2 1.8, MgCl2 1.8, 0.2 BaCl2 pH 7.35). The IonWorks uses amphotericin to gain electrical access to the cell interior. The internal solution contained (mM concentrations): 130 K-gluconate, 20 KCl, 5 HEPES-KOH (pH 7.25), 2 CaC12, 1 MgCl2. Amphotericin added at 5 mg in 65 ml when present (in 650 μl DMSO). All internal and external solutions for this experiment contain 1% DMSO. Cells were acutely trypsinized from a T-75 flask and resuspended in extracellular buffer at a density of 2×10^5 cells/ml.
Experiments were performed at room temperature, Transmembrane potential was held at −100 mV for 5 seconds prior to running the voltage protocol. During this time leak currents were measured during a step to −110 mV (200 milliseconds). T-type calcium currents were activated with a 250 millisecond step to −20 mV. This depolarization step was repeated for a total of 10 pulses with an interpulse interval of 1 second. Data were excluded if the following acceptance criteria were not met: total resistance for the pre-compound scan >65 MΩ, pre-compound current >250 pA, post compound total resistance >50 MΩ.
T-type currents were measured as the peak inward current minus the current at the end of the 250 msec step to −20 mV. After the recoding configuration was established there was a pre-compound measurement of current amplitude Compound was added as a 3× solution containing 1% DMSO. After incubation with compound for 10 minutes currents were measured again. The current amplitude after compound addition was divided by the pre-compound current for pulse 10 to determine the traction of current remaining after compound addition. For each compound, 8-point concentration-effect relationships were measured with ½ log serial dilutions.

T2 sequence (O95180 whole entry): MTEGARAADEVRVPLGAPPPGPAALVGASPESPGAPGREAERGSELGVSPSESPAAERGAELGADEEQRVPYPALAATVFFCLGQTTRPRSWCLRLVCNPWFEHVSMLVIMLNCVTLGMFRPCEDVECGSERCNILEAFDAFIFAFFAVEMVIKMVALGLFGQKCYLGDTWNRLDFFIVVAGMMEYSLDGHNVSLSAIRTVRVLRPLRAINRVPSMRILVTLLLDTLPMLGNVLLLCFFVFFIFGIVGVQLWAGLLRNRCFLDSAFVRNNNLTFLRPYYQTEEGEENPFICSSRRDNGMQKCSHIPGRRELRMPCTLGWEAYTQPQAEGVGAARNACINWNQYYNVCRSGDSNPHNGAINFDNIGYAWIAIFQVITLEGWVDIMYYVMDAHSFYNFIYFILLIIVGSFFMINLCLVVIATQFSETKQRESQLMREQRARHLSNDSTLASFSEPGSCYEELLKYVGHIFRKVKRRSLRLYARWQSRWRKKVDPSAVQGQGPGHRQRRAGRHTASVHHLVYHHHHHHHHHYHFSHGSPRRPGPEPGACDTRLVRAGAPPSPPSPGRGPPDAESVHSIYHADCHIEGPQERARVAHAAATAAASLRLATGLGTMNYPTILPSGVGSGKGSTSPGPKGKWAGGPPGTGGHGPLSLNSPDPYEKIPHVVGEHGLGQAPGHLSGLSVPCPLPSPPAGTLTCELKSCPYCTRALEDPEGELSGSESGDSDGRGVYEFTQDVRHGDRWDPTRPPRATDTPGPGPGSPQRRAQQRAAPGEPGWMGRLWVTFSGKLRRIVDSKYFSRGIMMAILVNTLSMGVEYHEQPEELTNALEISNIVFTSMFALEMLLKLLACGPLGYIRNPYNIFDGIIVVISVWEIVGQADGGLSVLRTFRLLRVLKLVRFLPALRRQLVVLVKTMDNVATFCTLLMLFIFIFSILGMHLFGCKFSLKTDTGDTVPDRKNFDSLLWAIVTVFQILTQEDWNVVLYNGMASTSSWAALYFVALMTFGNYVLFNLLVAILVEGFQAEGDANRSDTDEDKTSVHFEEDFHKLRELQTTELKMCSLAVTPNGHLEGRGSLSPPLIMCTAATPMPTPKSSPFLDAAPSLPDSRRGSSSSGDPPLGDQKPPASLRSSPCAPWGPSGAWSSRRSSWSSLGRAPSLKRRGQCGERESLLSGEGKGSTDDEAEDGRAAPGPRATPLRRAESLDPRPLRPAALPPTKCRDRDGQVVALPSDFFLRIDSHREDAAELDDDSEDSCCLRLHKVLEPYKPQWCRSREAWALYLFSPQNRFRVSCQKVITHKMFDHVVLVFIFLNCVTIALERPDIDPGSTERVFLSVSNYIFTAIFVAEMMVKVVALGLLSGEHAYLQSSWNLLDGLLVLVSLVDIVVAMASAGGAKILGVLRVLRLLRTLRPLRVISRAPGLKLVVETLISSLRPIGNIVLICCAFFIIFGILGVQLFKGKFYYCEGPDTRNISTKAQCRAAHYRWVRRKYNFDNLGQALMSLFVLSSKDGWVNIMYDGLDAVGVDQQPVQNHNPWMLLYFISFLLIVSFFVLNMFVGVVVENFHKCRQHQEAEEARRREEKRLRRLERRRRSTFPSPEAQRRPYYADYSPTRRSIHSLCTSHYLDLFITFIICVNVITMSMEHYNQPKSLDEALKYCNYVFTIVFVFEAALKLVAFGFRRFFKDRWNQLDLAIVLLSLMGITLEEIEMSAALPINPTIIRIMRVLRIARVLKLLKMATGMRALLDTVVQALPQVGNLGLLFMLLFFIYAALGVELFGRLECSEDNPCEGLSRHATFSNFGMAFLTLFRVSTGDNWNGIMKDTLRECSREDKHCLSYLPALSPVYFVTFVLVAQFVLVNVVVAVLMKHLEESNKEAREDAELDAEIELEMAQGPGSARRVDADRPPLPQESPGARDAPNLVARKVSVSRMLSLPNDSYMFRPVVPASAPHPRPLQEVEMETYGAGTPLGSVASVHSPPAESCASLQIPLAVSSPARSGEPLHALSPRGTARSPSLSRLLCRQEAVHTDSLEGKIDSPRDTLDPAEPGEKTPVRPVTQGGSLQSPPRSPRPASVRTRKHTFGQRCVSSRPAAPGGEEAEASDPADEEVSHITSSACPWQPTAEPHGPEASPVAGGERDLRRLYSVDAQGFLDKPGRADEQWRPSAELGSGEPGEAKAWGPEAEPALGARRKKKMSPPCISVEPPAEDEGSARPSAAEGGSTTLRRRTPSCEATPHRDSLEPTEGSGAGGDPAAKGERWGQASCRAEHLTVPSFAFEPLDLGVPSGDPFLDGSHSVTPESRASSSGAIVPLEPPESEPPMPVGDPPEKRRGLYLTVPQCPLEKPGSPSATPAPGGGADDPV

| Structure (SMILES) | IC50 |
| --- | --- |
| CC(C)CCN1CC2(CCN(C(=O)NC34CC5CC(CC(C5)C3)C4)CC2)C1c1ccc(F)cc1 (centres unmarked) | 68 nM |
| CC(C)CCN1CC2(CCN(C(=O)Nc3cc(F)cc(F)c3)CC2)C1c1ccc(F)cc1 (centres unmarked) | 70 nM |
| CC[C@H](C)[C@H](NC(=O)N1CCC2(CC1)CN(C(C)C)C2c1ccc(-c2ccccc2)cc1)C(=O)OC (some centres unmarked) | 76 nM |
| CC(C)N1CC2(CCN(C(=O)Nc3cccc(F)c3)CC2)C1c1ccc(Cl)cc1 (single isomer, unassigned) | 64 nM |
| CC[C@H](C)[C@H](NC(=O)N1CCC2(CC1)CN(C(C)C)C2c1ccc(Cl)cc1)C(=O)OC(C)(C)C (single isomer, unassigned) | 85 nM |
| CC(C)CCN1CC2(CCN(C(=O)Nc3cc(F)cc(F)c3)CC2)C1c1ccc(F)cc1 (single isomer, unassigned) | 76 nM |

Now from value to molecule:

| IC50 | Structure (SMILES) |
| --- | --- |
| 58 nM | CC[C@H](C)[C@H](NC(=O)N1CCC2(CC1)CN(CCC(C)C)C2c1ccc(F)cc1)C(=O)OC (some centres unmarked) |
| 24 nM | CC[C@H](C)[C@H](NC(=O)N1CCC2(CC1)CN(C(C)C)C2c1ccc(Br)cc1)C(=O)OC (single isomer, unassigned) |
| 38 nM | CC(C)N1CC2(CCN(C(=O)Nc3cccc(Cl)c3)CC2)C1c1ccc(Cl)cc1 (single isomer, unassigned) |
| 44 nM | CC(C)N1CC2(CCN(C(=O)Nc3cc(F)cc(F)c3)CC2)C1c1ccc(Br)cc1 (single isomer, unassigned) |
| 49 nM | CC(C)N1CC2(CCN(C(=O)Nc3ccc(Cl)cc3)CC2)C1c1ccc(Cl)cc1 (single isomer, unassigned) |
| 50 nM | CC(C)N1CC2(CCN(C(=O)Nc3cccc(C#N)c3)CC2)C1c1ccc(Cl)cc1 (single isomer, unassigned) |
| 58 nM | CC(C)N1CC2(CCN(C(=O)Nc3cccc(F)c3)CC2)C1c1ccc(Br)cc1 (single isomer, unassigned) |
| 60 nM | O=C(Nc1cc(F)cc(F)c1)N1CCC2(CC1)CN(c1ccc(F)c(Cl)c1)C2c1ccccn1 (single isomer, unassigned) |
| 45 nM | CC[C@H](C)[C@H](NC(=O)N1CCC2(CC1)CN(CCC(C)C)C2c1ccc(F)cc1)C(=O)OC (single isomer, unassigned) |

target: T2, human Cav3.2; assay: Conventional whole cell patch clamp, hCav3.2 current; type: cell-based; details: values marked * in Table 10; voltage clamp assay
From the text: as §1
HEK cells were transiently transfected and then selected for stable heterologous expression of different channel proteins of interest. Calcium channel cell lines expressed a resting potassium current, human Kir2.1, and the pore forming α-subunit of voltage-gated calcium channels. In the case of Cav2.1 cells the auxiliary subunit, β2a, was also expressed. […]
The holding potential was −100 mV for all protocols. […] Cav3.2 currents were measured as the peak current 10-30 milliseconds after the voltage was stepped to −35 mV. […] For hCav2.1 currents were activated with a 200 millisecond step to 0 mV. hCav2.1 currents were measured from the leak-subtracted traces as the average current between 190 and 200 milliseconds after the step to 0 mV. […] Sodium currents were measured from leak subtracted traces as the peak transient inward current.
All drug effects were measured after a steady-state effect was achieved. […]

| IC50 | Structure (SMILES) |
| --- | --- |
| 202 nM | CC(C)CCN1CC2(CCN(C(=O)NC34CC5CC(CC(C5)C3)C4)CC2)C1c1ccc(F)cc1 (centres unmarked) |
| 82 nM | CC[C@H](C)[C@H](NC(=O)N1CCC2(CC1)CN(C(C)C)C2c1ccc(Br)cc1)C(=O)OC (single isomer, unassigned) |
